Experimental data published in patent EP0745595A1, “3-(3-Aryloxyphenyl)-1-(substituted methyl)-s-triazine-2,4,6-oxo or thiotrione herbicidal agents” (American Cyanamid Company, priority 1995, dated 1996).

Tests used:
Format in all cases: in vivo
[1] = tested on: ABUTILON THEOPHRASTI, MEDIC.; assay: Postemergence herbicidal evaluation, ABUTH (Velvetleaf); conditions: for ABUTH, herbicide rating (0-9): rated four to five weeks after treatment, averaged
Method in brief: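 This postemergence herbicide test used two-week-old velvetleaf seedlings grown in jiffy flats. Each compound was sprayed at 40 psi as a dispersion in 50/50 acetone/water with 0.5% TWEEN®20 surfactant. Plants then received routine greenhouse care. After four to five weeks, injury was scored visually on a 0-9 scale against a control, and replicate tests were averaged.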

[2] = tested on: CHENOPODIUM ALBUM, L.; assay: Preemergence herbicidal evaluation, CHEAL (Lambsquarters, Common); conditions: for CHEAL rating: four to five weeks after treatment
Method in brief: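 First, seeds in potting soil are sown atop soil in cups. Next, the surface is sprayed with test compound in aqueous acetone at roughly 0.125 to 0.50 kg per hectare. After four to five weeks of greenhouse care, each cup is scored 0-9 against a control.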

[3] = tested on: TRITICUM AESTIVUM, CV. APOLLO; assay: Postemergence herbicidal evaluation, TRZAWO (Wheat, Winter, CV. APOLLO)
Method in brief: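 This greenhouse postemergence test applied compounds to roughly two-week-old wheat seedlings grown in jiffy flats. The spray solution was 50/50 acetone/water with 0.5% TWEEN®20, a polyoxyethylene sorbitan monolaurate, sprayed from a nozzle run at 40 psi. After four to five weeks of standard greenhouse care, injury was scored from 0 to 9 by comparing stand, vigor, malformation, size, chlorosis and overall appearance with a control. Multiple tests were averaged.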

[4] = tested on: ZEA MAYS L.; assay: Postemergence herbicidal evaluation, ZEAMX (Corn, Field)
Method in brief: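 This greenhouse postemergence test treated corn plants about two weeks old. Compounds in a 50/50 acetone/water mixture with 0.5% TWEEN®20 were applied through a spray nozzle at 40 psi. After four to five weeks, injury was scored 0-9 against an untreated control, judging stand, vigor, malformation, size, chlorosis and overall appearance. Repeated tests were averaged.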

[5] = tested on: CHENOPODIUM ALBUM, L.; assay: Postemergence herbicidal evaluation, CHEAL (Lambsquarters, Common)
Method in brief: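 Postemergence herbicidal activity on Chenopodium album was tested by spraying two-week-old seedlings grown in jiffy flats with compound in acetone/water (50/50) plus 0.5% TWEEN®20, using a 40 psi nozzle. Four to five weeks after treatment, stand, vigor, malformation, size, chlorosis and overall appearance were scored 0-9 relative to controls, with repeat tests averaged.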

[6] = tested on: ORYZA SATIVA, L. TEBONNET; assay: Rice tolerance to post-transplant applications under flooded paddy conditions, ORYSAT (Rice, Tebonnet); conditions: post-transplant rice, rated three to four weeks after treatment;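 note: applied to flooded soil surface three days after transplanting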
Method in brief: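 Visual 0-9 rating against untreated control (stand, vigor, malformation, size, chlorosis, overall appearance), taken 3-4 weeks after treatment. Flooded silt loam, water at 1.5-3 cm; two 10-day-old seedlings per pot; compound applied to flooded soil surface 3 days post-transplant at ~0.5-0.063 kg/ha.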

[7] = tested on: ECHINOCHLOA CRUS-GALLI, (L) BEAU; assay: Postemergence herbicidal evaluation, ECHCG (Barnyardgrass); parameters: key to ECHCG rating / Herbicidal effect rating, ECHCG / ECHCG: 0-9 visual rating scale vs untreated control
Method in brief: (§1)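 Ratings (0-9) reflect visual stand, vigor, malformation, size and chlorosis compared with untreated plants, assessed 4-5 weeks after postemergence spraying. Treatment was applied to roughly two-week-old seedlings at about 0.125-0.500 kg/ha in acetone/water with 0.5% Tween 20; replicate tests were averaged.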

[8] = tested on: SETARIA VIRIDIS, (L) BEAU; assay: Postemergence herbicidal evaluation, SETVI (Foxtail, Green); parameters: key to SETVI rating / Herbicidal effect rating, SETVI / SETVI: 0-9 visual rating scale vs untreated control; conditions: for SETVI, herbicide rating (0-9): rated four to five weeks after treatment, averaged
Method in brief: as §1

[9] = tested on: AMBROSIA ARTEMISIIFOLIA, L.; assay: Postemergence herbicidal evaluation, AMBEL (Ragweed, Common)
Method in brief: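 Postemergence herbicidal activity on AMBEL (common ragweed) was assessed on two-week-old seedlings grown in jiffy flats. Treatment solutions of 50/50 acetone/water with 0.5% TWEEN®20 surfactant were sprayed at 40 psi. After four to five weeks in the greenhouse, plants were scored 0-9 against a control for stand, vigor, malformation, size, chlorosis and overall appearance, with multiple tests averaged.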

[10] = tested on: CASSIA OBTUSIFOLIA, L.; assay: Postemergence herbicidal evaluation, CASOB (Sicklepod); parameters: key to CASOB rating / Herbicidal effect rating, CASOB / CASOB: 0-9 visual rating scale vs untreated control; conditions: for CASOB, herbicide rating (0-9): rated four to five weeks after treatment, averaged
Method in brief: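 Each value is a 0–9 visual rating of plant appearance compared with control, recorded 4–5 weeks after a 0.125–0.500 kg/ha spray, with multiple tests averaged.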

[11] = tested on: IPOMOEA SPP.; assay: Postemergence herbicidal evaluation, IPOSS (Morningglory spp.)
Method in brief: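 In this greenhouse postemergence herbicide test on Ipomoea spp. (morningglory), compounds in 50/50 acetone/water with 0.5% TWEEN®20 were sprayed at 40 psi onto seedlings about two weeks old grown in jiffy flats. After four to five weeks, injury was scored on a 0-9 scale covering stand, vigor, malformation, size, chlorosis and overall appearance versus control, with repeat tests averaged.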

Compound: COC(=O)Cn1c(=O)n(C)c(=O)n(-c2cc(Oc3c(F)cc(C(F)(F)F)cc3Cl)ccc2Br)c1=O [Compound 2, Methyl 3-{2-bromo-5-[(2-chloro-α,α,α,6-tetrafluoro-p-tolyl)oxy]phenyl}tetrahydro-5-methyl-2,4,6-trioxo-s-triazine-1(2H)-acetate]
- Herbicidal effect rating, ABUTH ([1]; 0.063 kg/ha): 8.8
- Herbicidal effect rating, ABUTH ([1]; 0.125 kg/ha): 9.0
- Herbicidal effect rating, ABUTH ([1]; 0.250 kg/ha): 9.0
- Herbicidal effect rating, ABUTH ([1]; 0.500 kg/ha): 9.0
- ABUTH, herbicide rating (0-9) ([1]; Rate 0.125 kg/ha): 9.0
- ABUTH, herbicide rating (0-9) ([1]; Rate 0.250 kg/ha): 9.0
- ABUTH, herbicide rating (0-9) ([1]; Rate 0.500 kg/ha): 9.0
- CHEAL ([2]; Rate 0.063 kg/ha): 9.0
- CHEAL ([2]; Rate 0.125 kg/ha): 9.0
- CHEAL rating ([2]; Rate 0.125 kg/ha): 9.0
- CHEAL ([2]; Rate 0.250 kg/ha): 9.0
- CHEAL rating ([2]; Rate 0.250 kg/ha): 9.0
- CHEAL ([2]; Rate 0.500 kg/ha): 9.0
- CHEAL rating ([2]; Rate 0.500 kg/ha): 9.0
- Herbicidal effect rating, TRZAWO ([3]; 0.063 kg/ha): 7.0
- Herbicidal effect rating, TRZAWO ([3]; 0.125 kg/ha): 7.5
- Herbicidal effect rating, TRZAWO ([3]; 0.250 kg/ha): 8.0
- Herbicidal effect rating, TRZAWO ([3]; 0.500 kg/ha): 8.5
- Herbicidal effect rating, ZEAMX ([4]; 0.063 kg/ha): 7.7
- Herbicidal effect rating, ZEAMX ([4]; 0.125 kg/ha): 8.4
- Herbicidal effect rating, ZEAMX ([4]; 0.250 kg/ha): 8.3
- Herbicidal effect rating, ZEAMX ([4]; 0.500 kg/ha): 8.3
- Herbicidal effect rating, CHEAL ([5]; 0.063 kg/ha): 8.8
- Herbicidal effect rating, CHEAL ([5]; 0.125 kg/ha): 8.7
- Herbicidal effect rating, CHEAL ([5]; 0.250 kg/ha): 8.5
- Herbicidal effect rating, CHEAL ([5]; 0.500 kg/ha): 8.5
- ORYSAT herbicidal rating (rice tolerance) ([6]; Rate 0.063 kg/ha): 2.5
- ORYSAT herbicidal rating (rice tolerance) ([6]; Rate 0.125 kg/ha): 4.0
- ORYSAT herbicidal rating (rice tolerance) ([6]; Rate 0.250 kg/ha): 5.5
- ORYSAT herbicidal rating (rice tolerance) ([6]; Rate 0.500 kg/ha): 6.7
- Herbicidal effect rating, ECHCG ([7]; 0.063 kg/ha): 5.0
- Herbicidal effect rating, ECHCG ([7]; 0.125 kg/ha): 6.7
- Herbicidal effect rating, ECHCG ([7]; 0.250 kg/ha): 9.0
- Herbicidal effect rating, ECHCG ([7]; 0.500 kg/ha): 9.0
- Herbicidal effect rating, SETVI ([8]; 0.063 kg/ha): 7.5
- Herbicidal effect rating, SETVI ([8]; 0.125 kg/ha): 9.0
- Herbicidal effect rating, SETVI ([8]; 0.250 kg/ha): 9.0
- Herbicidal effect rating, SETVI ([8]; 0.500 kg/ha): 9.0
- SETVI, herbicide rating (0-9) ([8]; Rate 0.125 kg/ha): 9.0
- SETVI, herbicide rating (0-9) ([8]; Rate 0.250 kg/ha): 9.0
- SETVI, herbicide rating (0-9) ([8]; Rate 0.500 kg/ha): 9.0
- Herbicidal effect rating, AMBEL ([9]; 0.063 kg/ha): 8.0
- Herbicidal effect rating, AMBEL ([9]; 0.125 kg/ha): 7.3
- Herbicidal effect rating, AMBEL ([9]; 0.250 kg/ha): 7.5
- Herbicidal effect rating, AMBEL ([9]; 0.500 kg/ha): 8.0
- Herbicidal effect rating, CASOB ([10]; 0.063 kg/ha): 9.0
- Herbicidal effect rating, CASOB ([10]; 0.125 kg/ha): 9.0
- Herbicidal effect rating, CASOB ([10]; 0.250 kg/ha): 9.0
- Herbicidal effect rating, CASOB ([10]; 0.500 kg/ha): 9.0
- CASOB, herbicide rating (0-9) ([10]; Rate 0.125 kg/ha): 9.0
- CASOB, herbicide rating (0-9) ([10]; Rate 0.250 kg/ha): 9.0
- CASOB, herbicide rating (0-9) ([10]; Rate 0.500 kg/ha): 9.0
- Herbicidal effect rating, IPOSS ([11]; 0.063 kg/ha): 8.3
- Herbicidal effect rating, IPOSS ([11]; 0.125 kg/ha): 8.7
- Herbicidal effect rating, IPOSS ([11]; 0.250 kg/ha): 9.0
- Herbicidal effect rating, IPOSS ([11]; 0.500 kg/ha): 9.0
